From ChEMBL document CHEMBL1201862, “PubChem BioAssay data set” (2004)
Calls of active or inactive are those of the source.

What was measured:
CHO = CHO cell viability loss, potency – luminescence, cytotoxicity control for TLR9-MyD88 binding inhibitor project, dose response (AID 588339); type: functional, cell-based, hamster; details: Cricetulus griseus;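 note: CHO cells stably coexpressing TLR9 and MyD88 fusions from primary screen; compound exposure lasted 48 hours before viability readout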
[1] = alpha-synuclein stem-loop luciferase translation blockers – H4 neuroglioma cells, luminescence, confirmation (AID 1988); type: functional, cell-based
[2] = Luminescence Cell-Based Dose Response HTS to Identify Inhibitors of 5'UTR Stem-Loop Driven Prion Protein mRNA Translation in H4 Neuroglioblastoma Cells. [Related pubchem assays: 1827 (Project Summary), 1813 (Primary HTS)]; type: functional
[3] = viability of PTEN-deleted HCT116 cells – cell-based, HCT116 PTEN knockout, dose response (AID 1047); type: functional;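 note: HCT116 colon tumor cells with PTEN knocked out; cells exposed to compound for 60 hours before readout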
[4] = HEK-293T viability loss after treatment – luminescence, T-cell screen hits, cytotoxicity control for TCR NF-kB inhibitor project, dose response (AID 489026); type: functional, cell-based;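 note: cells exposed to compound about 14 hours before the viability readout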
[5] = loss of viability in HepG2 cells – cell-based, CellTiter-Glo, cherry-picked, cytotoxicity control for Shn3 inhibitor project, dose response (AID 624134); type: functional
[6] = luciferase reporter signal suppression in cells – H4 neuroglioma cells, luminescence, dose response (AID 1990); type: functional, cell-based
[7] = reduction of Shn3 3'UTR-driven luciferase in osteoblasts – cell-based, Clone20 osteoblasts, firefly luciferase, cherry-picked, dose response (AID 624132); type: functional;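 note: firefly luciferase luminescence from reporter carrying the Shn3 3'UTR in osteoblasts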
Streptococcus = test: GAS UMAA2166 growth inhibition – luminescence, BacTiterGlo, counter-screen for streptokinase expression inhibitor project, dose response (AID 1915); type: functional, organism-based;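 note: potency for reduction of bacterial viability or growth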
Mu-type opioid receptor = Mu-type opioid receptor (Homo sapiens, UniProt P35372); test: HTS Image-Based Screen for Agonists of the MOR Receptor. [Related pubchem assays (depositor defined):AID1777, AID1785, AID1786, AID2133]; type: functional;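 note: imaging of beta-arrestin GFP recruitment into spots after receptor activation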
Chain of Mu-type opioid receptor (P35372 whole entry): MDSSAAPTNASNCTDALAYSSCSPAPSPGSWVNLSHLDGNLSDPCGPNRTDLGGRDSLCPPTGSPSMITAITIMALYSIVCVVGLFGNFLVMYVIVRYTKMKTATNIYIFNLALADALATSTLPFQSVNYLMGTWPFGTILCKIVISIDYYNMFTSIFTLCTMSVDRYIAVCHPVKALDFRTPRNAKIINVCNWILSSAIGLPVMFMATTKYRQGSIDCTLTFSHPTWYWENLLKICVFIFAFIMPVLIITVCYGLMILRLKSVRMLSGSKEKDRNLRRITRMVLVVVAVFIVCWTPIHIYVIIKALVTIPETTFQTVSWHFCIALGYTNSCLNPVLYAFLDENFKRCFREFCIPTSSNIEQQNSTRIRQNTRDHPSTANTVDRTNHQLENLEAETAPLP

fMet-Leu-Phe receptor = target: T1, fMet-Leu-Phe receptor (Homo sapiens, UniProt P21462); test: formyl peptide receptor binders – dose response (AID 519); type: functional
T1 sequence (P21462 whole entry): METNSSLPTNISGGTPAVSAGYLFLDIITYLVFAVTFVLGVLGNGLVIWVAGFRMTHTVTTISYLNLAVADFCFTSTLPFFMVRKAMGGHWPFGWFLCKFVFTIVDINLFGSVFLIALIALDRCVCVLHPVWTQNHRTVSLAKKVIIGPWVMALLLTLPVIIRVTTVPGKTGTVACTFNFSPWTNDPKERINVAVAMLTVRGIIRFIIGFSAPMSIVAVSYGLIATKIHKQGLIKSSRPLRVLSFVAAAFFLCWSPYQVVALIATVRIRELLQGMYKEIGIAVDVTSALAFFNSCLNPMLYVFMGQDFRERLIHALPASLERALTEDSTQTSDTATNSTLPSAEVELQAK

[8] = target: T2, Kappa-type opioid receptor (Homo sapiens, UniProt P41145); type: functional
T2 sequence (P41145 whole entry): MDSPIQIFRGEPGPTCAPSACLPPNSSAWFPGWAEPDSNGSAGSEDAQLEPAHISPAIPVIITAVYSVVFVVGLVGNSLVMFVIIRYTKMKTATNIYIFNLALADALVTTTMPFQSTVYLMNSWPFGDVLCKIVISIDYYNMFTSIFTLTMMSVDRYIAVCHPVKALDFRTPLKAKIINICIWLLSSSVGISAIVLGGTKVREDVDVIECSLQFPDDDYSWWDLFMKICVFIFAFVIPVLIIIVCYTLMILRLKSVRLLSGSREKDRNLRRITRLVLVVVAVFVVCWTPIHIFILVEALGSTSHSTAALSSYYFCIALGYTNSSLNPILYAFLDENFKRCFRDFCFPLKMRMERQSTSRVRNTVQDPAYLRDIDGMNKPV

[9] = non-specific 3'UTR reporter inhibition in Clone20-Shn3RL – cell-based, Renilla luciferase, cherry-picked, counter-screen for Shn3 inhibitor project, dose response (AID 624133); type: functional
[10] = target: T3, Delta-type opioid receptor (Homo sapiens, UniProt P41143); test: HTS Image-Based Screen for Agonists of the DOR Receptor. [Related pubchem assays (depositor defined):AID1777, AID1786, AID2133]; type: functional
T3 sequence (P41143 whole entry): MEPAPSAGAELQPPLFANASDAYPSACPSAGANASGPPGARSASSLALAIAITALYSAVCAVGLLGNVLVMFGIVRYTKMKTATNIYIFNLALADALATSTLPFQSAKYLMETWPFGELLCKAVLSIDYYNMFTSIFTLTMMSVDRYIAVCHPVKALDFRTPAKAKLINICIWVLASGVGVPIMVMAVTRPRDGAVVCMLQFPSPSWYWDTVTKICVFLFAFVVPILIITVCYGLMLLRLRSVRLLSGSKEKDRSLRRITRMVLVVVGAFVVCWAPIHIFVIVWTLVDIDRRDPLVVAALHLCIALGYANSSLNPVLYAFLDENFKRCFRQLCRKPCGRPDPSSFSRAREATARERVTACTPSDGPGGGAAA

Beta-galactosidase = Beta-galactosidase (Escherichia coli, UniProt Q8VNN2); type: functional
Chain of Beta-galactosidase (Q8VNN2 whole entry): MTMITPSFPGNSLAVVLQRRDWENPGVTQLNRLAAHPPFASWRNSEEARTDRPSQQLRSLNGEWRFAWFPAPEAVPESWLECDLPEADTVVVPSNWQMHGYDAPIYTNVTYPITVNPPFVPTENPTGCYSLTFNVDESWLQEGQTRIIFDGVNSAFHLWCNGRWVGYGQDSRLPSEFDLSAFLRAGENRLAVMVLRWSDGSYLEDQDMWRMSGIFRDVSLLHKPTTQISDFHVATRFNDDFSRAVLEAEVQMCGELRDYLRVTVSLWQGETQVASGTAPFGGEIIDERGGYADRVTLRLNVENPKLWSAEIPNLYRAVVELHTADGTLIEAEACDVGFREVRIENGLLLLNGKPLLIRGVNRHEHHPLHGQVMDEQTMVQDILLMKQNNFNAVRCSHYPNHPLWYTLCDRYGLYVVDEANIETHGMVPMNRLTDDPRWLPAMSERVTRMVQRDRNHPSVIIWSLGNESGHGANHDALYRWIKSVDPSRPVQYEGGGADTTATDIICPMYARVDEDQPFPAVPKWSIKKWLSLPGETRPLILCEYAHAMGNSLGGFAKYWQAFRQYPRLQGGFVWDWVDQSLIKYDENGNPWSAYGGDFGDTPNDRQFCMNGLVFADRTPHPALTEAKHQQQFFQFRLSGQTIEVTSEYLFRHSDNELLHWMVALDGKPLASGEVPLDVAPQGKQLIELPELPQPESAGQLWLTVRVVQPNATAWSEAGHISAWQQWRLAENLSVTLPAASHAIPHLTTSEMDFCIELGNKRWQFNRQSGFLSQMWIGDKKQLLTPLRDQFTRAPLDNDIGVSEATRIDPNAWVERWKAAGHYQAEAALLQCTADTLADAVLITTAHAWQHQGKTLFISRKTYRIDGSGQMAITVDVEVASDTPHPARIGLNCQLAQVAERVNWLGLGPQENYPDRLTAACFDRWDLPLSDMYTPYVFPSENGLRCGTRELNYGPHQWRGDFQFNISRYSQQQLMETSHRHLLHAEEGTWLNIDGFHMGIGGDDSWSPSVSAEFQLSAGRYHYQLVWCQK

Streptokinase A = target: T4, Streptokinase A (Streptococcus pyogenes serotype M1, UniProt P10520); test: viability-normalized secreted streptokinase activity reduction – plasminogen activation absorbance, OD405, dose response (AID 1914); type: functional, Streptococcus pyogenes M1 GAS;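 note: secreted streptokinase activity via plasminogen activation per viability signal from cell pellet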
T4 sequence (P10520 whole entry): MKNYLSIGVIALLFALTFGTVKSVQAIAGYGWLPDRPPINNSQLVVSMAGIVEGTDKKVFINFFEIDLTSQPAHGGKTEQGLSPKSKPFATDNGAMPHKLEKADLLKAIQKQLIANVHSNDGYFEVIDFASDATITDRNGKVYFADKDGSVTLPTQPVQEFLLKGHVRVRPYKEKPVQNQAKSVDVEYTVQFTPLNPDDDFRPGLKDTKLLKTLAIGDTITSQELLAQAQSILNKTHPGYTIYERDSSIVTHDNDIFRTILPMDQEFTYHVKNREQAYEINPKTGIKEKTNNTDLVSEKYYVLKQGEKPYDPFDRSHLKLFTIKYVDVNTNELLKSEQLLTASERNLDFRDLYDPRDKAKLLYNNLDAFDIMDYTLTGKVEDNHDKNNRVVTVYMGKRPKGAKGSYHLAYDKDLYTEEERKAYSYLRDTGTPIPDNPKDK

Beta Lactamase = Beta Lactamase (Pseudomonas aeruginosa, UniProt Q932Y6); test: BLA reporter interference, concentration series – BLA reporter cells, FRET fluorescence, artefact control for TLR9-MyD88 binding inhibitor project, dose response (AID 588341); type: cell-based;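 note: cell based assay in CHO-K1 cells stably expressing beta-lactamase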
Chain of Beta Lactamase (Q932Y6 whole entry): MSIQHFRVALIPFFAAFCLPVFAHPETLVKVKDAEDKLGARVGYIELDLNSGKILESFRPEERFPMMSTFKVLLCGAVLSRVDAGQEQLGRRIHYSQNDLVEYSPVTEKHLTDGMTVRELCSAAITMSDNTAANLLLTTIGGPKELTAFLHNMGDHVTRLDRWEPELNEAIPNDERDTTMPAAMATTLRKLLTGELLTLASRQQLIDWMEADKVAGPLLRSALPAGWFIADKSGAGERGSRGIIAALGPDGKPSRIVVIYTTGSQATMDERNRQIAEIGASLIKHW

[11] = target: T2, Kappa-type opioid receptor; type: functional; remark: listed apart in the source
[12] = viability of HCT116 lacking mutant beta-catenin – cell-based, human colon tumor, dose response (AID 1045); type: functional;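 note: HCT116 colon tumor cells with beta catenin knocked out; cells exposed to compound for 60 hours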
[13] = target: T3, Delta-type opioid receptor; test: HTS Image-Based Screen for Antagonists of the DOR Receptor. [Related pubchem assays (depositor defined):AID1777, AID1785, AID1786, AID2133]; type: functional
[14] = system: Streptococcus sp. 'group A'; test: Streptococcus pyogenes SK(-)GAS viability under kanamycin – luminescence, BacTiterGlo, confirmation, counter-screen for streptokinase expression inhibitor project, dose response (AID 1900); type: functional, organism-based
Caspase-3 = target: T5, Caspase-3 (Homo sapiens, UniProt P42574); test: SAR Analysis of small molecule inhibitors of Sentrin-specific proteases (SENPs) using a Caspase-3 Selectivity assay. [Related pubchem assays (depositor defined):AID2540, AID2599, AID434973, AID489001]; type: functional
T5 sequence (P42574 whole entry): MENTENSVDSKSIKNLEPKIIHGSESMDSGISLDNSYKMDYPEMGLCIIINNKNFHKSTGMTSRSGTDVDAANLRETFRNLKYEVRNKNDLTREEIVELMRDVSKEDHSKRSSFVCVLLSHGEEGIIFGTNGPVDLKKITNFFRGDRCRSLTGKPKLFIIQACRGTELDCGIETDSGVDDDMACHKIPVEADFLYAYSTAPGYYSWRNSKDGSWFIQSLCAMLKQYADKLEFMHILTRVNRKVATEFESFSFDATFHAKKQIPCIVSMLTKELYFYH

[15] = target: T6, Sentrin-specific protease 6 (Homo sapiens, UniProt Q9GZR1); test: SAR Analysis of small molecule inhibitors of Sentrin-specific protease 6 (SENP6) using a Luminescent assay. [Related pubchem assays (depositor defined):AID2582, AID2599]; type: functional
T6 sequence (Q9GZR1 whole entry): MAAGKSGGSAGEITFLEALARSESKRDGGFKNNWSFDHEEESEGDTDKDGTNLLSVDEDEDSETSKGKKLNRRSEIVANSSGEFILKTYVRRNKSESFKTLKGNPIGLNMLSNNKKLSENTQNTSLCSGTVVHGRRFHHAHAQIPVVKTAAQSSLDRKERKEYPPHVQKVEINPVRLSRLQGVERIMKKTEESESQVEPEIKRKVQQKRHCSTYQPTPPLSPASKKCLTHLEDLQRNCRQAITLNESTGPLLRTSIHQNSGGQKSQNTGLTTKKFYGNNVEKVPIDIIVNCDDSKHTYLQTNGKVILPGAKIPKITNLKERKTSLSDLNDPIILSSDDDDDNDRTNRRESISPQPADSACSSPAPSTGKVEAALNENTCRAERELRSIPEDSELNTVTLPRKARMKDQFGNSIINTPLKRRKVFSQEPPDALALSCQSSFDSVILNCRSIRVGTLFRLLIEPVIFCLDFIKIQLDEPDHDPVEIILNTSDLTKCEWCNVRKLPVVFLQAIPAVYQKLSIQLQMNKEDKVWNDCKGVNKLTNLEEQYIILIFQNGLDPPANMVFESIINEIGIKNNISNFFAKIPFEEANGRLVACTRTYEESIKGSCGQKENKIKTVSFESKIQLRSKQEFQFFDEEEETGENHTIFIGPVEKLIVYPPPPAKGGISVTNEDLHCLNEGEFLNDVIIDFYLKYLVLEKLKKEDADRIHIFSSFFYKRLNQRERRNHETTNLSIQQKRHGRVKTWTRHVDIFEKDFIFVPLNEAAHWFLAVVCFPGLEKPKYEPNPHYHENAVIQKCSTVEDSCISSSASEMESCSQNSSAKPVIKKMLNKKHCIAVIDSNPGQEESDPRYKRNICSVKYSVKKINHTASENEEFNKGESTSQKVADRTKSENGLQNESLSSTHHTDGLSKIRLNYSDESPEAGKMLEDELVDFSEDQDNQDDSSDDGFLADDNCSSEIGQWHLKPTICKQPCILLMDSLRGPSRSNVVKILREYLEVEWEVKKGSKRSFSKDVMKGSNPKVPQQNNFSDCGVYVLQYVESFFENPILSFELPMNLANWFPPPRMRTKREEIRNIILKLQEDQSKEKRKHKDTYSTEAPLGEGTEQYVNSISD

[16] = target: T7, Sentrin-specific protease 7 (Homo sapiens, UniProt Q9BQF6); test: inhibition of human SENP7 cleavage activity – biochemical, luminescence, SAR follow-up (AID 504497); type: functional
T7 sequence (Q9BQF6 whole entry): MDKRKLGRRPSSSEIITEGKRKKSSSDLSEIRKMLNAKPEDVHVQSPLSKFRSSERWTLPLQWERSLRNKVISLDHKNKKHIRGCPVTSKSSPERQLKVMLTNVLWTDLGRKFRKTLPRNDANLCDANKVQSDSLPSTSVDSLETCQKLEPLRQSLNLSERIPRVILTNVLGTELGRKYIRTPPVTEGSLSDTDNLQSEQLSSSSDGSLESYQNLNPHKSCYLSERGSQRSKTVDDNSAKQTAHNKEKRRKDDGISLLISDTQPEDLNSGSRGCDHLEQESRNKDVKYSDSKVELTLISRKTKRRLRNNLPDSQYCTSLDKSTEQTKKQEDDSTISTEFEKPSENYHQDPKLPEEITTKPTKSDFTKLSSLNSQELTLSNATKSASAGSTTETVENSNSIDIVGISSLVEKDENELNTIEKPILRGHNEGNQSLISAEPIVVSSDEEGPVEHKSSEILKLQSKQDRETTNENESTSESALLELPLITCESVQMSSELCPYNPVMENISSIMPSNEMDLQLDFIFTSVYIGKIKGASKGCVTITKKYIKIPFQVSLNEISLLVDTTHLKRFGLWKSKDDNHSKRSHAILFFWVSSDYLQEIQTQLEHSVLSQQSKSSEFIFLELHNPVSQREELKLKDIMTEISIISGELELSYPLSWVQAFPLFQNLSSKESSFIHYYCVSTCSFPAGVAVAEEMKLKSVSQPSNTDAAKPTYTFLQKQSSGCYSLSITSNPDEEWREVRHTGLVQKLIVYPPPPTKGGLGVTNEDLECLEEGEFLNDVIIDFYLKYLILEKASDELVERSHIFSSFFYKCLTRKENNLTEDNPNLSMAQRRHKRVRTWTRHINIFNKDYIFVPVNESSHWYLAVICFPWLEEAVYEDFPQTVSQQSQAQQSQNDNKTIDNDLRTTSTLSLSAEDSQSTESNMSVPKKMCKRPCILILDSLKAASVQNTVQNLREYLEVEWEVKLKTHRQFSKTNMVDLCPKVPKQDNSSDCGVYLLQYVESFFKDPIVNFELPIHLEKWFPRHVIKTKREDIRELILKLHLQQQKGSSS

[17] = target: T8, Sentrin-specific protease 8 (Homo sapiens, UniProt Q96LD8); test: inhibition of human SENP8 cleavage activity – biochemical, luminescence, SAR follow-up (AID 504501); type: functional
T8 sequence (Q96LD8 whole entry): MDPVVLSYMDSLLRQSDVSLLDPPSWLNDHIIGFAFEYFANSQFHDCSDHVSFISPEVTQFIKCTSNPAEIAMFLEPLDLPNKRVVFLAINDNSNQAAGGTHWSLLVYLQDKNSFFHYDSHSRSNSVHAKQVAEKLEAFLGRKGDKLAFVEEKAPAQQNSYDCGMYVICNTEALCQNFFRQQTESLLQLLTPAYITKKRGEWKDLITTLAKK

O=S(=O)(Nc1cccc2ncccc12)c1cccs1
IC50 (CHO): 4.34 µM (active) | EC50 [1]: 11.8 µM (active) | EC50 [2]: 7.05 µM (active) | EC50 [3]: 1.97 µM (active) | IC50 [4]: > 80 µM (inactive) | AC50 [5]: 6.33 µM (active) | EC50 [6]: 15.3 µM (active) | AC50 [7]: 4.3 µM (active) | EC50 (Streptococcus): 7.13 µM (active) | EC50 (Mu-type opioid receptor): > 32 µM (inactive) | Ki (fMet-Leu-Phe receptor): > 66.7 µM (inactive) | IC50 [8]: 2.64 µM (active) | AC50 [9]: 13.2 µM (active) | EC50 [10]: > 32 µM (inactive) | EC50 (Beta-galactosidase): > 31.5 µM (inactive) | EC50 (Streptokinase A): > 150 µM (not active) | IC50 (Beta Lactamase): > 49.7 µM (inactive) | IC50 [11]: > 32 µM | EC50 [12]: 1.62 µM (active) | IC50 [13]: > 32 µM (inactive) | EC50 [14]: 3.58 µM (active)

O=C(Nc1ccncc1)c1ccc2c(c1)OCO2
IC50 (Caspase-3): 14.4 µM (active) | IC50 [15]: > 99 µM (inactive) | IC50 [16]: 33.8 µM (active) | IC50 [17]: > 99 µM (inactive)
